Consider 1 molecule from PubChem BioAssay AID652113 (The Scripps Research Institute Molecular Screening Center, 2013).

The data set has as its system PAMPA artificial membrane permeability, LC-MS, 5 h. Briefly: PubChem AID 652113. The conditions noted are these: hits give high values.

Consider `COC(=O)c1cc(Br)cnc1N1CCC(NC2CCCCC2)C(O)C1` (stereo unspecified), for which the permeability was 16.5 ×10⁻⁶ cm/s.
